Holding throughout (assay type): biochemical
Assay [1] deals with HEK293 cytosolic fractions. As to the kind of experiment: Quenched Aβ peptide (qAβ) degradation assay in HEK293 cytosolic fractions, with and without protease inhibitors. The settings on record: protease inhibitor added to HEK293 cytosolic fractions prior to qAβ, 30 minutes at 4 °C; inhibitor concentrations 20-200 µM; fluorescence at 37°C. The text has this:
We developed a sensitive Aβ degradation assay by generating a quenched Aβ40 peptide containing a small fluorescein group and a quenching dabcyl group (Reits et al., 2004) flanking the KLVFF sequence present in the middle of the Aβ peptides that is a critical region for aggregation (Fig. 1A) (Tjernberg et al., 1996). A quenched Aβ42 peptide was difficult to synthesize as the peptide was too aggregation-prone during synthesis, preventing efficient labeling with the small fluorophore. […] The qAβ peptides were added to cytoplasmic fractions of mildly lysed HEK293 cells, thereby preventing contamination with extracellular membrane-bound or lysosomal proteases, resulting in an increase in fluorescent signal (Fig. 1B). To identify which proteases play a role in this Aβ clearance machinery, different protease inhibitors were added to the cytosolic fractions prior to adding the qAβ. […]
HEK cells were lysed in 25 µM digitonin (Sigma) in KMH buffer (110 mM KAc, 2 mM MgAc and 20 mM Hepes-KOH, pH 7.2). Human and mouse brain hippocampal tissue was lysed in ± 400 µl (adjusted to the amount of tissue) of homogenization buffer (50 mM Tris/HCl pH 7.5, 250 mM sucrose, 5 mM MgCl2 and freshly added 2 mM ATP, 1 mM DTT and 0.025 % digitonin (Sigma)). Tissue was homogenized on ice in homogenization buffer using a homogenizer. Cell lysates were incubated for 30 minutes on ice and centrifuged for 15 minutes at 14.000 rpm at 4 °C.
HFIP-treated aliquots of Aβ40 were resuspended in DMSO followed by sonication for 10 minutes, immediately before use. 75 ng (340 nM) of quenched Aβ40 was added to 5 µg protein from the cell lysates in KMH buffer (110 mM KAc, 2 mM MgAc and 20 mM Hepes-KOH, pH 7.2) to a total volume of 50 µl. Protease inhibitors (100 µM 1,10-phenanthroline, 200 µM bacitracin, 100 µM E64, 20 µM MG-132, 100 µM puromycin, 100 µM PMSF, 200 µM pepstatin A (all Sigma), 100 µM AAF-CMK, 100 µM amastatin or 50 µM bestatin (Enzo lifesciences AG), 50 µM PAQ-22 (Wako Chemicals), 100 µM Cpp-AAF-pNa (InstruChem), 50 µM PAQ-22 (SopaChem) and 100 µM butabindide (Tocris Bioscience)) were added to the cell lysates and incubated for 30 minutes at 4 °C. Degradation of the peptide was analyzed at 37°C using the FLUOstar OPTIMA (BMG Labtec.).

The test system of assay [2] is human hippocampal lysates. As to the kind of experiment: Quenched Aβ peptide (qAβ) degradation assay in human hippocampal lysates at different Braak stages. The settings on record: bacitracin added to hippocampal lysates prior to qAβ; all Braak stages. Here is the method: Since the hippocampus is highly susceptible to Aβ accumulation, we examined whether the ability to degrade Aβ is affected in sporadic (sAD) using human hippocampal tissue of post-mortem brains with varying Braak stages. Included were Braak 0 (control, no AD) and Braak I-VI. When the ability to degrade qAβ was determined for each Braak stage (Fig. 2A, solid bars), a strong decrease in qAβ degradation rate was already observed in Braak stage I (t-test, two-tailed, p=0.03), which further decreased during the progression to Braak stage II (t-test, two-tailed, p=0.01). […] Also oligomerized Aβ was less well degraded with increasing Braak stage (Fig. 2B). AD progression can also be classified by plaque distribution in well defined brain areas giving a particular amyloid score, ranging from O (no plaques) to C. Similar to increasing Braak stages, the rate of qAβ degradation decreased with increasing amyloid score, being significant for hippocampal fractions of brains classified with amyloid score C (t-test, two-tailed, p=0.017) (Fig. 2C). […]
HFIP-treated aliquots of Aβ40 were resuspended in DMSO followed by sonication for 10 minutes, immediately before use. […] Degradation of the peptide was analyzed at 37°C using the FLUOstar OPTIMA (BMG Labtec.).

In the next assay the test system is SH-SY5Y cell lysates. As to the kind of experiment: Degradation of the quenched 12-mer peptide in SH-SY5Y cell lysates. An excerpt: To proof that shorter variants of the substrates of the invention may also be used as a suitable substrate to measure IDE activity, we analyzed the degradation of a substrate having the amino acid sequence HQKLVFFACDBC, which contains the KLVFF region flanked by a quenched and fluorophore. In addition, we examined the effect of bacitracine, the inhibitor for IDE, on the degradation of this 12-mer peptide (see Figure 5), as well as its ability to aggregate and form oligomers.
The 12-mer substrate having the amino acid sequence HQKLVFFACDCB (SEQ ID NO:10) containing a fluorophore and quencher was synthesized as described before (Reits et al., 2004), introducing a fluorescein at the cysteine (position 11) and a quenching dabcyl group at the lysine (position 3). The substrate was sonificated immediately before use and added to 5 µg cell lysate. KMH buffer (110 mM KAc, 2 mM MgAc and 20 mM Hepes-KOH, pH 7.2) was added to a total volume of 50 µl. Degradation of the substrate was analyzed at 37°C using the FLUOstar OPTIMA (BMG Labtec.).

Positions of bridges follow the written chain, without caps; N, C: chain ends. Non-standard residues stand in square brackets, D forms with d. Residues, ends and D or L forms follow the SMILES beside them. *: point of attachment. Ileψ(thiazoline)Cys = CC[C@H](C)[C@H](N)C1=N[C@H](C(=O)*)CS1; Sta = CC(C)C[C@H](N)[C@@H](O)CC(=O)O; dOrn = NCCC[C@@H](N)C(=O)O; Isovaleryl = CC(C)CC(=O)*; Cbz = O=C(OCc1ccccc1)*; CH2Cl = ClC*

As to `C[C@H](N)C(=O)N[C@@H](C)C(=O)N[C@@H](Cc1ccccc1)C(=O)CCl` [AAF-CMK] (H-Ala-Ala-Phe-CH2Cl), in assay [1], the “effect on qAβ degradation” value was “did not show any effect”. For the compound `CC(C)C[C@H](NC(=O)[C@H]1O[C@@H]1C(=O)O)C(=O)NCCCCN=C(N)N` [E64], the “effect on qAβ degradation” value in assay [1] is on record as “did not show any effect”. Same read-out and setting: as for `CC(C)C[C@@H](C=O)NC(=O)[C@H](CC(C)C)NC(=O)[C@H](CC(C)C)NC(=O)OCc1ccccc1` [MG132] (Cbz-Leu-Leu-Leu-aldehyde), the entry is “did not show any effect”; as for `O=S(=O)(F)Cc1ccccc1` [PMSF], “did not show any effect”; as for `CC(C)C[C@@H](N)[C@H](O)C(=O)N[C@H](C(=O)N[C@H](C(=O)N[C@@H](CC(=O)O)C(=O)O)C(C)C)C(C)C` [amasatin], “did not show any effect”. As to `CC[C@H](C)[C@H](N)C1=N[C@H](C(=O)N[C@@H](CC(C)C)C(=O)N[C@H](CCC(=O)O)C(=O)N[C@H](C(=O)N[C@H]2CCCCNC(=O)[C@H](CC(N)=O)NC(=O)[C@@H](CC(=O)O)NC(=O)[C@H](Cc3cnc[nH]3)NC(=O)[C@@H](Cc3ccccc3)NC(=O)[C@H]([C@@H](C)CC)NC(=O)[C@@H](CCCN)NC2=O)[C@@H](C)CC)CS1` [bacitracin] ({Ileψ(thiazoline)Cys}-L[dE]IK[dOrn]I[dF]H[dD]N; lactam 4-C), in assay [1], the “effect on qAβ degradation” value is given as “reduced”. Moreover, the “ability to degrade qAβ” value in assay [2] is reported as “strongly reduced”. Further, in the assay on SH-SY5Y cell lysates (bacitracine added to SH-SY5Y cell lysates, monomeric 12-mer), the “effect on degradation of the 12-mer peptide” value is “inhibited”.

Turning to `CC(C)C[C@H](NC(=O)[C@@H](O)[C@H](N)Cc1ccccc1)C(=O)O` [bestatin], in assay [1], the “effect on qAβ degradation” value is given as “did not show any effect”. Still for that read-out and setting: as for `CCCCNC(=O)[C@@H]1Cc2ccccc2N1C(=O)[C@@H](N)CC` [butabindide], the entry is “did not show any effect”. The same measure, in the same setting: for `CC(C)CC(=O)N[C@H](C(=O)N[C@H](C(=O)N[C@@H](CC(C)C)[C@@H](O)CC(=O)N[C@@H](C)C(=O)N[C@@H](CC(C)C)[C@@H](O)CC(=O)O)C(C)C)C(C)C` [pepstatin] (Isovaleryl-VV[Sta]A[Sta]-OH) the value was “did not show any effect”; for `c1cnc2c(c1)ccc1cccnc12` [phenantroline, 1,10-phenanthroline], “significantly decreased”. In the case of HQKLVFFACDCB [12-mer peptide], in the assay on SH-SY5Y cell lysates (12-mer peptide incubated at 37°C (3 HR in PBS) before addition to SH-SY5Y cell lysates), the “plateau level of fluorescence after aggregation” value was “lower plateau level”. For the same compound, the “degradation of the 12-mer peptide” value with SH-SY5Y cell lysates (monomeric form added to SH-SY5Y cell lysates) was “degradation could be observed”.

The record behind these values is patent publication EP2746402A1, “Method of prognosis of Alzheimers disease and substrates for use therein” (Academisch Medisch Centrum, priority 2013, dated 2014).
